Laboratory results as given in patent US8691764B2, “Inhibitors of NF-κB activity” (The Research Foundation for the State University of New York, priority 2007, dated 2014).
Where no end group is shown, it is not given here.

Key:
[1] = molecular target: T1, NF-κB (Homo sapiens, UniProt P19838+Q04206); experiment: NF-κB activity ELISA (TransBinding NF-κB assay kit), BxPC-3 cells; type: cell-based; design: endogenous in cells; host or cells: BxPC-3; settings: for NF-κB activity with peptides of annexin 1: BxPC-3 cells, 30 μM, 3 h
T1 sequence (Q04206 whole entry): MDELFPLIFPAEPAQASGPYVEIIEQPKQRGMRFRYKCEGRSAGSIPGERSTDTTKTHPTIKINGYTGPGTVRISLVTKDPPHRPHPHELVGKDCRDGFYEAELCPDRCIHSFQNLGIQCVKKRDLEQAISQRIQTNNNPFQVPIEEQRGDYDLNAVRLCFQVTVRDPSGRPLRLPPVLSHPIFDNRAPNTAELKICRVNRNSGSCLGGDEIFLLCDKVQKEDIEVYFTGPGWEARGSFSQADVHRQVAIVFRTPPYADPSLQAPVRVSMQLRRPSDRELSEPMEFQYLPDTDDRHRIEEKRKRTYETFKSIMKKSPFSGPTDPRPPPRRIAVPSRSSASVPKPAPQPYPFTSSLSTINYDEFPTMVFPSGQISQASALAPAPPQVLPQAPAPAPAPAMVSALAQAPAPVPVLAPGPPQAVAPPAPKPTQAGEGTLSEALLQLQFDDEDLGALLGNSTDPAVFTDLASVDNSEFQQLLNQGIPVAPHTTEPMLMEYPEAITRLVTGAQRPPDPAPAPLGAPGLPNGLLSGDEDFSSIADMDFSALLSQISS
T1 sequence (P19838 1-433 limits assumed): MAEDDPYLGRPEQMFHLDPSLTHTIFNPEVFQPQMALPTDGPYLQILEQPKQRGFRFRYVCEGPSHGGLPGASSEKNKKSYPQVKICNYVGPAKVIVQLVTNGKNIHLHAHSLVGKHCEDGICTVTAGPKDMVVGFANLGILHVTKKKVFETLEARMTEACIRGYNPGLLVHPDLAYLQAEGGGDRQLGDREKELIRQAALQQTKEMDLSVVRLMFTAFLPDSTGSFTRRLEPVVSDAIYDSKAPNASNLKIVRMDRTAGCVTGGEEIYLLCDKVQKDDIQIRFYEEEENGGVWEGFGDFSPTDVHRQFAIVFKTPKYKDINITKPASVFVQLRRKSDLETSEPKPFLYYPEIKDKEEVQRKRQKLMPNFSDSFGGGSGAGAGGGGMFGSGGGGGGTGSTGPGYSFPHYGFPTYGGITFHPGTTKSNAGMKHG
Protocol: (§1) NF-κB activity was measured in these cells using the TransBinding NF-κB assay kit and following the instructions of the manufacturer (Panomics). Briefly, nuclear extracts obtained as described above, were incubated for 30 min in an ELISA plate coated with NF-κB consensus DNA sequence to which p50 protein can bind. After binding, antibody against p50 was added and incubated for 1 hour, followed by HRP-conjugated antibody for 1 hour. Afterwards, luminol/enhancer solution and stable peroxide solution were added and chemoluminescence was detected using a luminometer (Bio-Rad).

[2] = tested on: annexin 1; experiment: Induction of annexin 1 in BxPC-3 cells, Western blot of nuclear and cytoplasmic extracts; type: cell-based, human; settings: for expression of annexin 1: 5 mM conventional ASA, 100 μM cortisone; for annexin 1 expression with conventional NSAIDs: 6 h, each at 1 mM
Protocol: The human pancreatic cancer cell line, BxPC-3, or the colon cancer cell line HT-29, both from ATCC (Manassas, Va.) were maintained and grown in RPMI 1640 or McCoy's 5A medium (Cellgro) supplemented with 10% fetal bovine serum (HyClone) and 1% penicillin/streptomycin (Cellgro) in a humidified incubator at 37° C. and 5% CO2.
The cell fractions were obtained as described by Andrews and Faller (N. C. Andrews and D. V. Faller, Nucleic Acids Res. 19:2499 (1991)) with modification. Briefly, the cells were pelleted after treatment and washed three times with PBS. The cell pellets were resuspended in ice cold buffer A (10 mM HEPES, pH 7.9, 10 mM KCl, 1.5 mM MgCI2, 0.5 mM DTT, 0.5 mM PMSF) with protease inhibitor cocktail (Sigma) and incubated on ice for 15 min with occasional mixing by gently tapping the tube. The cell lysates were centrifuged up to 5000 rpm for three times. The supernatants were collected as cytoplasmic extracts. Nuclear pellets were washed with buffer A and resuspended in buffer C (20 mM HEPES, pH 7.9, 450 mM NaCl, 1.5 mM MgCI2, 0.2 mM EDTA, 0.5 mM DTT, 0.5 mM PMSF, 25% Glycerol) with protease inhibitor cocktail (Sigma) and incubated on ice for 30 min with occasional mixing to extract nuclear proteins. Nuclear extracts were cleared by centrifugation (14,800 rpm for 10 min) and the supernatants were collected as nuclear extracts.
For Western blotting, the proteins from both cytoplasmic extracts and nuclear extracts were separated by SDS-polyacrylamide gel electrophoresis and transferred onto PVDF membranes (Millipore). The membranes were blocked in 5% nonfat dry milk-TBS-T (20 mM Tris-HCl, pH 7.5, 500 mM NaCl. 0.3% Tween 20) at room temperature (RT) for an hour and probed with anti-annexin 1, c-IAP-1, c-IAP-2, and TRAF-1 (Santa Cruz Biotechnology, Inc. CA), and anti-Bcl-2 antibodies (Cell Signaling Technology), in 5% nonfat dry milk-TBS-T at 4° C. overnight. The blots were washed three times with TBS-T for 5 min each wash and incubated with horseradish peroxidase-conjugated secondary antibody (Santa Cruz) in 5% nonfat dry milk-TBS-T at RT for an hour. After five washes with TBS-T, the blots were developed with the enhanced chemiluminescence system (ECL™ Western Blotting System, Amersham Biosciences) and exposed to x-ray film according to the manufacturer's instructions. Protein loading was normalized using anti-β-actin antibodies (Santa Cruz Biotechnology, Inc).

[3] = cortisol=1; cited from earlier work
[4] = molecular target: T1, NF-κB; experiment: NF-κB activity ELISA, SW480 cells; type: cell-based; design: endogenous in cells; host or cells: SW480
Protocol: as §1, with “In the same manner as for NO-ASA, BxPC-3 cells were treated for 6 h with different corticosteroid inflammatory drugs, each at 4 μM, and tested for their ability to induce annexin 1. […] NF-κB activity” for “NF-κB activity”
BxPC-3 or SW480 cells were treated with 30 μM of each of the peptides of annexin 1 for 3 h. NF-κB activity and apoptosis were measured in whole cell lysates using an ELISA assay as described in EXAMPLES 2 and 4. […] These peptides are Ac-Gln-Ala-Trp, as set forth in SEQ ID NO:1, the peptide Ac-Phe-Gln-Ala-Tip, as set forth in SEQ ID NO:2 and the peptide Ac-Phe-Leu-Lys-Gln-Ala-Trp, as set forth in SEQ ID NO:3. Other depicted acetylated peptides are Ac-Phe-Leu-Lys (SEQ ID NO:14), Ac-Lys-Gln-Ala-Trp (SEQ ID NO:15), and Ac-Val-Ser-Glu-Lys-Gln-Ala-Trp (SEQ ID NO:16).

[5] = tested on: SW480 tumor xenografts; experiment: SW480 human colon cancer xenograft in nude mice; type: in vivo, BALB/c nude mice; settings: i.p. 40 μg once daily
Protocol: Female 6-week-old BALB/c nude mice were obtained from The Jackson Laboratory (Bar Harbor, Me.). The animals were housed in a climate- and light-controlled room. Food and water were allowed ad libitum. The SW480 human colon cancer cell line was used to establish xenografts in nude mice. 2×10^6 cells in 100 μl of PBS were injected subcutaneously (s.c.) into the upper portion of the left hind limb of the mice, where they grew as solid tumors. The size of the tumor was measured two times per week using a Venier caliper. The tumor volume was determined using the formula V=L×W(L+W/2)×0.56.
On the 7th day after inoculation, when the tumor size reached an average 240 mm^3, 18 mice were treated with QW-3 administered by i.p. injection of at a dose of 40 μg once daily. The control group (n=18) was administered the vehicle alone. The mice were sacrificed on day 12, and tumors were resected and stored in liquid nitrogen and formalin until further analysis.
Immunohistochemistry was performed on paraffin sections of the tumors. All sections were incubated at 95-100° C. in WCAP reagent (Surgipath) for 30 min, washed and then incubated in 10:1 Methanol:H2O2 for 10 min. Sections were then incubated in rabbit polyclonal PCNA (Santa Cruz, Calif.) or antibody detecting NF-κB activation (Chemicon) for 1 h after which immunoreactivity was detected with an Envision assay kit and DAB reagent (DakoCytomation). All sections were counterstained with haematoxylin and mounted. Negative controls included a non-specific antibody.

[6] = tested on: SW480 human colon cancer cells; experiment: Apoptosis, Cell Death Detection ELISA, SW480 cells; type: cell-based
Protocol: Apoptosis was determined using the Cell Death Detection ELISA^PLUS assay kit according to the manufacturer's protocol (Roche, Indianapolis, Ind.). Briefly, the cells were treated with either NO-ASA or Dex for 3 h. Cells were harvested and washed three times with PBS. The cell pellet was resuspended with lysis buffer and incubated for 30 min at RT. Cell […] at 200×g for 10 min. The ELISA assay was performed using 20 μl cell lysate and 80 μl Immunoreagent (containing 72 μl Incubation Buffer, 4 μl Anti-histone-biotin Solution, and 4 μl Anti-DNA-POD Solution) per micro-plate well. The micro-plate was covered with an adhesive foil and incubated on a shaker under gentle shaking at 200 rpm for 2 h at RT. The solution in each well was removed thoroughly by tapping and the pellets were rinsed three times with 200 μl Incubation Buffer. […] The absorbance was measured at 405 nm using the SpectraMax micro-plate reader (Molecular Devices, Sunnyvale).
BxPC-3 or SW480 cells were treated with 30 μM of each of the peptides of annexin 1 for 3 h. NF-κB activity and apoptosis were measured in whole cell lysates using an ELISA assay as described in EXAMPLES 2 and 4. […]

Compound	annexin 1 expression with conventional NSAIDs [2]	NF-κB activity with peptides of annexin 1 [1]	also measured
CC(=O)Oc1ccccc1C(=O)O [conventional ASA, aspirin]	no effect	–	activity of NF-κB with weak anti-inflammatory drugs ([1]; cells and concentration not given): do not inhibit; expression of annexin 1 [2]: failed to induce
C[C@]12CCC(=O)C=C1CC[C@@H]1[C@@H]2[C@@H](O)C[C@@]2(C)[C@H]1CC[C@]2(O)C(=O)CO [cortisol]	–	–	relative anti-inflammatory potency [3]: 1
C[C@]12CCC(=O)C=C1CC[C@@H]1[C@@H]2C(=O)C[C@@]2(C)[C@H]1CC[C@]2(O)C(=O)CO [cortisone]	–	–	expression of annexin 1 [2]: failed to induce
CC(C(=O)O)c1ccc(-c2ccccc2)c(F)c1 (stereo not drawn) [flurbiprofen]	no effect	–	–
CC(C)Cc1ccc(C(C)C(=O)O)cc1 (stereo not drawn) [ibuprofen]	no effect	–	–
COc1ccc2c(c1)c(CC(=O)O)c(C)n2C(=O)c1ccc(Cl)cc1 [indomethacin]	no effect	–	–
CN1C(C(=O)Nc2ccccn2)=C(O)c2ccccc2S1(=O)=O [piroxicam]	no effect	–	–
O=C(O)c1ccccc1O [salicylic acid]	no effect	–	–
CC1=C(CC(=O)O)c2cc(F)ccc2/C1=C\c1ccc([S+](C)[O-])cc1 (stereo not drawn) [sulindac]	no effect	–	–
C[C@]12C=CC(=O)C=C1CC[C@H]1[C@@H]3C[C@@H](O)[C@](O)(C(=O)CO)[C@@]3(C)C[C@H](O)[C@@]12F [triamincinolone]	–	–	relative anti-inflammatory potency [3]: 5
Ac-AMVSEFKQAWFIENEEQQYVQTVK [Ac2-26]	–	inhibited NF-κB activity	–
Ac-Ala-Met-Val-Ser-Glu-Phe-Leu-Lys-Gln-Ala-Trp (Ac-AMVSEFLKQAW) [Ac2-12, commercial peptide of annexin 1]	–	inhibited NF-κB activity	–
Ac-Gln-Ala-Trp [QW-3]	–	inhibited NF-κB activity	NF-κB activity [4]: inhibited NF-κB activity in a concentration-dependent manner; blood levels of IL-6 [5]: decreased levels of IL-6; blood levels of IL-10 [5]: increased the blood levels of IL-10; tumor growth [5]: suppressed tumor growth; NF-κB activity in tumors ([5]; tumor sections): inhibited NF-κB activity; cell proliferation by expression of PCNA (immunohistochemistry) ([5]; tumor sections): inhibited cell proliferation; apoptosis [6]: enhanced SW480 cell apoptosis
Ac-Phe-Gln-Ala-Trp (Ac-FQAW) [Ac-Phe-Gln-Ala-Tip]	–	inhibited NF-κB activity	–
Ac-Phe-Leu-Lys-Gln-Ala-Trp (Ac-FLKQAW)	–	inhibited NF-κB activity	–
